Assay results from PubChem BioAssay AID248 (DTP/NCI, 2004).
Values joined by “and” are separate entries in the source; they are usually repeats but may differ in a detail not shown here. Equal values may be shown once. Inconclusive results and toxic doses are left out. Cut-off read from the data, not from the text of the source: active = T/C of 150% or more; inactive = T/C below 125%.

Tested on: L1210 leukemia ip in BDF1 mice, survival T/C
Test: NCI In Vivo Anticancer Drug Screen. Data for tumor model L1210 Leukemia (intraperitoneal) in B6D2F1 (BDF1) mice
Settings: endpoint: mean survival time, higher = longer survival
Method in brief: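 Antitumor effect is assessed in tumor-bearing animals. Survival in the compound arm is compared with a vehicle-dosed control arm and expressed as their quotient.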

[1] = dose: 100.0 mg/kg/injection, schedule: Q01DX001 (ip), vehicle: Klucel (hydroxypropylcellulose) (HPC)
[2] = dose: 50.0 mg/kg/injection, schedule: Q01DX001 (ip), vehicle: carboxymethylcellulose (CMC)
[3] = dose: 100.0 mg/kg/injection, schedule: Q01DX001 (ip), vehicle: carboxymethylcellulose (CMC)
[4] = dose: 200.0 mg/kg/injection, schedule: Q01DX001 (ip), vehicle: carboxymethylcellulose (CMC)
[5] = dose: 50.0 mg/kg/injection, schedule: Q04DX002 (ip), vehicle: saline with Tween-80
[6] = dose: 50.0 mg/kg/injection, schedule: Q01DX009 (ip), vehicle: Klucel (hydroxypropylcellulose) (HPC)
[7] = dose: 100.0 mg/kg/injection, schedule: Q01DX009 (ip), vehicle: Klucel (hydroxypropylcellulose) (HPC)
[8] = dose: 100.0 mg/kg/injection, schedule: Q04DX003 (ip), vehicle: Klucel (hydroxypropylcellulose) (HPC)
[9] = dose: 200.0 mg/kg/injection, schedule: Q04DX003 (ip), vehicle: Klucel (hydroxypropylcellulose) (HPC)
[10] = dose: 400.0 mg/kg/injection, schedule: Q04DX003 (ip), vehicle: Klucel (hydroxypropylcellulose) (HPC)
[11] = dose: 100.0 mg/kg/injection, schedule: Q04DX003 (ip), vehicle: saline with Tween-80
[12] = dose: 200.0 mg/kg/injection, schedule: Q04DX003 (ip), vehicle: saline with Tween-80
[13] = dose: 400.0 mg/kg/injection, schedule: Q04DX003 (ip), vehicle: saline with Tween-80
[14] = dose: 100.0 mg/kg/injection, schedule: Q01DX001 (ip), vehicle: saline

Measured: T/C

O=C(C=Nc1ccc([N+](=O)[O-])cc1)c1c2ccccc2cc2ccccc12
inactive: [1] 107 % of control | dose: 200.0 mg/kg/injection, schedule: Q01DX001 (ip), vehicle: Klucel (hydroxypropylcellulose) (HPC) 102 % of control | dose: 400.0 mg/kg/injection, schedule: Q01DX001 (ip), vehicle: Klucel (hydroxypropylcellulose) (HPC) 106 % of control

C=CC1(O)CCCC1
inactive: dose: 50.0 mg/kg/injection, schedule: Q01DX009 (ip), vehicle: saline with Tween-80 100 % of control | dose: 100.0 mg/kg/injection, schedule: Q01DX009 (ip), vehicle: saline with Tween-80 107 % of control | dose: 200.0 mg/kg/injection, schedule: Q01DX009 (ip), vehicle: saline with Tween-80 96 % of control

CNc1nc(SCc2ccccc2)c2ncn(C3OC(CO)C(O)C3O)c2n1 (stereo not drawn)
inactive: [2] 106 % of control | [3] 95 % of control | [4] 104 % of control

CCCCCP(=O)(CCCCC)CCCCC
inactive: dose: 25.0 mg/kg/injection, schedule: Q04DX002 (ip), vehicle: saline with Tween-80 100 % of control | [5] 94 % of control | dose: 100.0 mg/kg/injection, schedule: Q04DX002 (ip), vehicle: saline with Tween-80 98 % of control and 106 % of control

CS(C)=O.CS(C)=O.[Cl][Sn]([Cl])([Cl])[Cl]
inactive: dose: 25.0 mg/kg/injection, schedule: Q01DX009 (ip), vehicle: Klucel (hydroxypropylcellulose) (HPC) 95 % of control | [6] 90 % of control | [7] 106 % of control | [8] 95 % of control | dose: 150.0 mg/kg/injection, schedule: Q01DX009 (ip), vehicle: Klucel (hydroxypropylcellulose) (HPC) 104 % of control

c1ccc2ocnc2c1
inactive: [8] 94 % of control | [9] 96 % of control | [10] 113 % of control

COc1ccc(/C=N\NC(=O)N/N=C/c2ccc(OC)c(OC)c2)cc1OC
inactive: dose: 50.0 mg/kg/injection, schedule: Q01DX001 (ip), vehicle: Klucel (hydroxypropylcellulose) (HPC) 90 % of control | [1] 95 % of control

NC(Cc1c[nH]c2c(N(CCCl)CCCl)cccc12)C(=O)O (stereo not drawn)
inactive: dose: 0.88 mg/kg/injection, schedule: Q01DX Z (ip), vehicle: methylcellulose (MC) 101 % of control | dose: 1.3 mg/kg/injection, schedule: Q01DX Z (ip), vehicle: methylcellulose (MC) 95 % of control | dose: 2.0 mg/kg/injection, schedule: Q01DX Z (ip), vehicle: methylcellulose (MC) 95 % of control | dose: 3.0 mg/kg/injection, schedule: Q01DX Z (ip), vehicle: methylcellulose (MC) 101 % of control | dose: 5.0 mg/kg/injection, schedule: Q01DX Z (ip), vehicle: methylcellulose (MC) 118 % of control | dose: 40.0 mg/kg/injection, schedule: Q01DX Z (ip), vehicle: methylcellulose (MC) 118 % of control

C=CCCCCCCCCC(=O)NCC1CC1
inactive: [11] 98 % of control | [12] 92 % of control | [13] 88 % of control

COC1/C=C/OC2(C)Oc3c(C)c(O)c4c(O)c(c(C=NOC(c5ccccc5)c5ccccc5)c(O)c4c3C2=O)NC(=O)/C(C)=C/C=C/C(C)C(O)C(C)C(O)C(C)C(OC(C)=O)C1C (stereo not drawn)
inactive: dose: 25.0 mg/kg/injection, schedule: Q04DX003 (ip), vehicle: water 102 % of control | dose: 50.0 mg/kg/injection, schedule: Q04DX003 (ip), vehicle: water 102 % of control | dose: 100.0 mg/kg/injection, schedule: Q04DX003 (ip), vehicle: water 96 % of control | dose: 200.0 mg/kg/injection, schedule: Q04DX003 (ip), vehicle: water 98 % of control

COC1CCC2(C)C3CCC4C(=CCC5C(C)(C)C(=O)CCC45C)CC3(C)CCC2C1(C)C (stereo not drawn)
inactive: dose: 75.0 mg/kg/injection, schedule: Q01DX001 (ip), vehicle: carboxymethylcellulose (CMC) 105 % of control | dose: 150.0 mg/kg/injection, schedule: Q01DX001 (ip), vehicle: carboxymethylcellulose (CMC) 110 % of control | dose: 300.0 mg/kg/injection, schedule: Q01DX001 (ip), vehicle: carboxymethylcellulose (CMC) 104 % of control

CC(CCN)(CCN)[N+](=O)[O-]
inactive: [14] 98 % of control | dose: 200.0 mg/kg/injection, schedule: Q01DX001 (ip), vehicle: saline 92 % of control | dose: 400.0 mg/kg/injection, schedule: Q01DX001 (ip), vehicle: saline 93 % of control

CC(=O)OCC(=O)C1CCC=CC1OC(C)=O (stereo not drawn)
inactive: dose: 100.0 mg/kg/injection, schedule: Q01DX009 (ip), vehicle: saline 105 % of control | dose: 100.0 mg/kg/injection, schedule: Q04DX003 (ip), vehicle: saline 93 % of control | dose: 200.0 mg/kg/injection, schedule: Q01DX009 (ip), vehicle: saline 105 % of control | dose: 200.0 mg/kg/injection, schedule: Q04DX003 (ip), vehicle: saline 91 % of control | dose: 400.0 mg/kg/injection, schedule: Q01DX009 (ip), vehicle: saline 98 % of control | dose: 400.0 mg/kg/injection, schedule: Q04DX003 (ip), vehicle: saline 91 % of control

O=C(OCC1OCOC(COC(=O)c2ccccc2)C(OC(=O)c2ccccc2)C1OC(=O)c1ccccc1)c1ccccc1 (stereo not drawn)
inactive: [5] 88 % of control

Nc1ccc(C(=O)Oc2ccccc2)c(O)c1
inactive: [8] 95 % of control | [9] 93 % of control | [10] 95 % of control

O=C(NCCCCNC(=O)Nc1ccc(C2=NCCN2)cc1)Nc1ccc(C2=NCCN2)cc1
inactive: dose: 8.0 mg/kg/injection, schedule: Q01DX Z (ip), vehicle: carboxymethylcellulose (CMC) 88 % of control | dose: 16.0 mg/kg/injection, schedule: Q01DX Z (ip), vehicle: carboxymethylcellulose (CMC) 92 % of control | dose: 31.0 mg/kg/injection, schedule: Q01DX Z (ip), vehicle: carboxymethylcellulose (CMC) 101 % of control | dose: 62.0 mg/kg/injection, schedule: Q01DX Z (ip), vehicle: carboxymethylcellulose (CMC) 123 % of control | dose: 125.0 mg/kg/injection, schedule: Q01DX Z (ip), vehicle: carboxymethylcellulose (CMC) 112 % of control

CCN(CC)CCCN1c2ccccc2Sc2ccc(Cl)cc21
inactive: dose: 1.56 mg/kg/injection, schedule: Q01DX009 (ip), vehicle: saline 102 % of control | dose: 3.12 mg/kg/injection, schedule: Q01DX009 (ip), vehicle: saline 98 % of control | dose: 6.25 mg/kg/injection, schedule: Q01DX009 (ip), vehicle: saline 96 % of control | dose: 12.5 mg/kg/injection, schedule: Q01DX009 (ip), vehicle: saline 103 % of control | dose: 12.5 mg/kg/injection, schedule: Q04DX003 (ip), vehicle: saline 102 % of control | dose: 25.0 mg/kg/injection, schedule: Q04DX003 (ip), vehicle: saline 109 % of control

O=C(Oc1ccc(Cl)cc1Cl)Oc1ccc(Cl)cc1Cl
inactive: [2] 98 % of control | [6] 105 % of control | dose: 50.0 mg/kg/injection, schedule: Q04DX003 (ip), vehicle: Klucel (hydroxypropylcellulose) (HPC) 98 % of control | [3] 104 % of control | [7] 100 % of control | [8] 95 % of control | [4] 104 % of control | dose: 200.0 mg/kg/injection, schedule: Q01DX009 (ip), vehicle: Klucel (hydroxypropylcellulose) (HPC) 103 % of control | [9] 106 % of control | dose: 400.0 mg/kg/injection, schedule: Q01DX001 (ip), vehicle: carboxymethylcellulose (CMC) 93 % of control

c1ccc(Oc2ccccc2)cc1
inactive: [11] 105 % of control | [12] 101 % of control | [13] 97 % of control

CC(=O)OCC1OC(Oc2c(Br)cc(Br)cc2Br)C(OC(C)=O)C(OC(C)=O)C1OC(C)=O (stereo not drawn)
inactive: [11] 96 % of control | [12] 101 % of control | [13] 95 % of control

CCCCSC(=N)N
inactive: [14] 94 % of control

NC(=O)N/N=C(\CCl)c1ccccc1
inactive: dose: 12.0 mg/kg/injection, schedule: Q04DX003 (ip), vehicle: saline 93 % of control

O=c1c(O)c(-c2ccc(Cl)cc2)oc2cc(O)ccc12
inactive: dose: 100.0 mg/kg/injection, schedule: Q01DX001 (ip), vehicle: other 101 % of control | dose: 200.0 mg/kg/injection, schedule: Q01DX001 (ip), vehicle: other 101 % of control | dose: 400.0 mg/kg/injection, schedule: Q01DX001 (ip), vehicle: other 93 % of control
